From patent US8388986B2, “Use of cationic surfactants in cosmetic preparations” (priority 2001, dated 2013)

What was measured:
[1] = tested on: Pseudomonas aeruginosa ATCC 9027; experiment: minimum inhibitory concentration; type: cell-based; conditions: Gram − Bacteria
[2] = tested on: Aspergillus niger ATCC 14604; experiment: minimum inhibitory concentration; type: cell-based; conditions: Fungi
[3] = tested on: Penicillium funiculosum CECT 2914; experiment: minimum inhibitory concentration; type: cell-based; conditions: Fungi
[4] = tested on: Mycobacterium phlei ATCC 41423; experiment: minimum inhibitory concentration; type: cell-based; conditions: Gram + Bacteria
[5] = tested on: Klebsiella pneumoniae var pneumoniae CECT 178; experiment: minimum inhibitory concentration; type: cell-based; conditions: Gram − Bacteria
Aerobes = experiment: preservative efficacy (Antimicrobial Effectiveness Testing USP 24th Edition) in cosmetic formulations; type: cell-based; conditions: 0.20 g of LAE
Method: (§1) This assay consists of the contamination of the protecting formulations with an inoculum mixture of 10^8 cfu/mL concentration, for each of the microorganisms, and the determination of the number of viable cells in the time. This inoculum mixture is composed of the following microorganisms:
(§2) The cosmetic composition to be analysed is divided into sterile containers with 50 g of product for each flask. Each container is inoculated with 0.5 mL of inoculum (10^8 cfu/mL). The target concentration is 10^6 cfu/mL, approximately. All the containers are kept at a temperature between 20-25° C. and are protected from light.
(§3) The level of the microbial contamination is checked at 0 hours, 7 days, 14 days and 28 days. The number of colonies is evaluated by dilution in buffer peptone with the appropriate neutraliser agent of the preservative. The culture media used for counting the microorganisms are: Soya triptone (35-37° C., 48 hours) for the determination of bacteria; Sabouraud agar with chloramphenicol for fungi and yeast (25° C., 3-5 days).
(§4) According to Antimicrobial Effectiveness Testing USP 24th Edition, 1999 (pp. 1809-1811), an antimicrobial preservative is considered to be effective in topically used products made with aqueous bases or vehicles, non-sterile nasal products and emulsions, including those applied to mucous membranes, if: • Not less than 2.0 logarithm reduction from the initial calculated bacteria's count is reached at 14 days and no increase from the 14 days' count at 28 days is detected; and • No increase from the initial calculated count of yeast and moulds is observed.

Yeast = experiment: as above; type: cell-based, Candida albicans ATCC 10231; conditions: 0.20 g of LAE
Method: as §1, §2, §3, §4

[6] = tested on: Escherichia coli ATCC 8739; experiment: minimum inhibitory concentration; type: cell-based; conditions: Gram − Bacteria
[7] = tested on: Leuconostoc mesenteroides CETC 912; experiment: minimum inhibitory concentration; type: cell-based; conditions: Gram + Bacteria
[8] = tested on: Penicillium chrysogenum CECT 2802; experiment: minimum inhibitory concentration; type: cell-based; conditions: Fungi
[9] = tested on: Gliocadium virens ATCC 4645; experiment: minimum inhibitory concentration; type: cell-based; conditions: Fungi
[10] = Example 1, oil-in-water emulsion with non-ionic surfactant, 7 days
[11] = Example 1, oil-in-water emulsion with non-ionic surfactant, 14 days
[12] = Example 1, oil-in-water emulsion with non-ionic surfactant, Initial
[13] = Example 2, oil-in-water emulsion with an ionic emulsifier, 7 days
[14] = Example 2, oil-in-water emulsion with an ionic emulsifier, 14 days
[15] = Example 2, oil-in-water emulsion with an ionic emulsifier, Initial
[16] = Example 3, water in oil emulsion with non-ionic emulsifiers, 7 days
[17] = Example 3, water in oil emulsion with non-ionic emulsifiers, 14 days
[18] = Example 3, water in oil emulsion with non-ionic emulsifiers, Initial
[19] = Example 4, aqueous solution with a surfactants' mixture (bath gels, disodium cocoamfoacetate), 7 days
[20] = Example 4, aqueous solution with a surfactants' mixture (bath gels, disodium cocoamfoacetate), 14 days
[21] = Example 4, aqueous solution with a surfactants' mixture (bath gels, disodium cocoamfoacetate), Initial
[22] = Example 5, aqueous solution with a surfactants' mixture (bath gels, disodium lauryl sulfosuccinate), 7 days
[23] = Example 5, aqueous solution with a surfactants' mixture (bath gels, disodium lauryl sulfosuccinate), 14 days
[24] = Example 5, aqueous solution with a surfactants' mixture (bath gels, disodium lauryl sulfosuccinate), Initial
[25] = Example 6, hydroalcoholic gel (after-shaving lotions), 7 days
[26] = Example 6, hydroalcoholic gel (after-shaving lotions), 14 days
[27] = Example 6, hydroalcoholic gel (after-shaving lotions), Initial
[28] = Example 7, facial tonic, 7 days
[29] = Example 7, facial tonic, 14 days
[30] = Example 7, facial tonic, Initial
[31] = Example 8, mask-up cleaner, 7 days
[32] = Example 8, mask-up cleaner, 14 days
[33] = Example 8, mask-up cleaner, Initial
[34] = Example 9, fluid oil-in-water emulsion with non-ionic surfactants (body oil), 7 days
[35] = Example 9, fluid oil-in-water emulsion with non-ionic surfactants (body oil), 14 days
[36] = Example 9, fluid oil-in-water emulsion with non-ionic surfactants (body oil), Initial
[37] = Example 10, toothpaste formulation, 7 days
[38] = Example 10, toothpaste formulation, 14 days
[39] = Example 10, toothpaste formulation, Initial
[40] = Example 11, aqueous solution with surfactants (shampoos), 7 days
[41] = Example 11, aqueous solution with surfactants (shampoos), 14 days
[42] = Example 11, aqueous solution with surfactants (shampoos), Initial
[43] = Example 12, oil-in-water emulsion with non-ionic surfactants (face cream), 7 days
[44] = Example 12, oil-in-water emulsion with non-ionic surfactants (face cream), 14 days
[45] = Example 12, oil-in-water emulsion with non-ionic surfactants (face cream), Initial
[46] = Example 13, oil-in-water emulsion with non-ionic surfactants (sun protector, polysorbate 60), 7 days
[47] = Example 13, oil-in-water emulsion with non-ionic surfactants (sun protector, polysorbate 60), 14 days
[48] = Example 13, oil-in-water emulsion with non-ionic surfactants (sun protector, polysorbate 60), Initial
[49] = Example 14, oil-in-water emulsion with non-ionic surfactants (sun protector, cetyl dimethicone copolyol), 7 days
[50] = Example 14, oil-in-water emulsion with non-ionic surfactants (sun protector, cetyl dimethicone copolyol), 14 days
[51] = Example 14, oil-in-water emulsion with non-ionic surfactants (sun protector, cetyl dimethicone copolyol), Initial
[52] = Example 15, emulsion for hands care, 7 days
[53] = Example 15, emulsion for hands care, 14 days
[54] = Example 15, emulsion for hands care, Initial

SMILES: CCCCCCCCCCCC(=O)N[C@@H](CCCN=C(N)N)C(=O)OCC.Cl [LAE, ethyl ester of the lauramide of the arginine monohydrochloride]
- M.I.C. [1]: 64 ppm
- M.I.C. [2]: 32 ppm
- M.I.C. [3]: 16 ppm
- M.I.C. [4]: 2 ppm
- M.I.C. [5]: 32 ppm
- viable count With LAE (Aerobes; [10]): 3.1 · 10^3 cfu/mL
- viable count With LAE (Aerobes; [11]): 3.3 · 10^2 cfu/mL
- viable count With LAE (Aerobes; [12]): 1.1 · 10^6 cfu/mL
- viable count With LAE (Aerobes; [13]): 1.6 · 10^4 cfu/mL
- viable count With LAE (Aerobes; [14]): 6.5 · 10^2 cfu/mL
- viable count With LAE (Aerobes; [15]): 2.7 · 10^6 cfu/mL
- viable count With LAE (Aerobes; [16]): 1.8 · 10^3 cfu/mL
- viable count With LAE (Aerobes; [17]): <9.9 · 10^1 cfu/mL
- viable count With LAE (Aerobes; [18]): 6.2 · 10^6 cfu/mL
- viable count With LAE (Aerobes; [19]): 5.8 · 10^3 cfu/mL
- viable count With LAE (Aerobes; [20]): <9.9 · 10^1 cfu/mL
- viable count With LAE (Aerobes; [21]): 3.3 · 10^6 cfu/mL
- viable count With LAE (Aerobes; [22]): 4.8 · 10^2 cfu/mL
- viable count With LAE (Aerobes; [23]): 1.3 · 10^2 cfu/mL
- viable count With LAE (Aerobes; [24]): 6.7 · 10^6 cfu/mL
- viable count With LAE (Aerobes; [25]): 6.9 · 10^3 cfu/mL
- viable count With LAE (Aerobes; [26]): <9.9 · 10^1 cfu/mL
- viable count With LAE (Aerobes; [27]): 3.7 · 10^6 cfu/mL
- viable count With LAE (Aerobes; [28]): 3.6 · 10^3 cfu/mL
- viable count With LAE (Aerobes; [29]): 5.9 · 10^2 cfu/mL
- viable count With LAE (Aerobes; [30]): 2.7 · 10^6 cfu/mL
- viable count With LAE (Aerobes; [31]): 3.8 · 10^3 cfu/mL
- viable count With LAE (Aerobes; [32]): 6.7 · 10^2 cfu/mL
- viable count With LAE (Aerobes; [33]): 4.5 · 10^6 cfu/mL
- viable count With LAE (Aerobes; [34]): 7.6 · 10^3 cfu/mL
- viable count With LAE (Aerobes; [35]): <9.9 · 10^1 cfu/mL
- viable count With LAE (Aerobes; [36]): 4.5 · 10^6 cfu/mL
- viable count With LAE (Aerobes; [37]): 3.3 · 10^3 cfu/mL
- viable count With LAE (Aerobes; [38]): 8.0 · 10^2 cfu/mL
- viable count With LAE (Aerobes; [39]): 4.5 · 10^6 cfu/mL
- viable count With LAE (Aerobes; [40]): 4.8 · 10^3 cfu/mL
- viable count With LAE (Aerobes; [41]): 7.0 · 10^2 cfu/mL
- viable count With LAE (Aerobes; [42]): 3.3 · 10^6 cfu/mL
- viable count With LAE (Aerobes; [43]): 3.7 · 10^4 cfu/mL
- viable count With LAE (Aerobes; [44]): 1.9 · 10^3 cfu/mL
- viable count With LAE (Aerobes; [45]): 1.1 · 10^6 cfu/mL
- viable count With LAE (Aerobes; [46]): 8.4 · 10^3 cfu/mL
- viable count With LAE (Aerobes; [47]): 7.5 · 10^2 cfu/mL
- viable count With LAE (Aerobes; [48]): 3.1 · 10^6 cfu/mL
- viable count With LAE (Aerobes; [49]): 9.4 · 10^2 cfu/mL
- viable count With LAE (Aerobes; [50]): 8.7 · 10^2 cfu/mL
- viable count With LAE (Aerobes; [51]): 1.4 · 10^6 cfu/mL
- viable count With LAE (Aerobes; [52]): 3.3 · 10^3 cfu/mL
- viable count With LAE (Aerobes; [53]): <9.9 · 10^1 cfu/mL
- viable count With LAE (Aerobes; [54]): 4.4 · 10^6 cfu/mL
- viable count With LAE (Yeast; [10]): 9.5 · 10^2 cfu/mL
- viable count With LAE (Yeast; [11]): 4.0 · 10^2 cfu/mL
- viable count With LAE (Yeast; [12]): 5.6 · 10^5 cfu/mL
- viable count With LAE (Yeast; [13]): 1.0 · 10^2 cfu/mL
- viable count With LAE (Yeast; [14]): 1.0 · 10^2 cfu/mL
- viable count With LAE (Yeast; [15]): 3.6 · 10^4 cfu/mL
- viable count With LAE (Yeast; [16]): <9.9 · 10^1 cfu/mL
- viable count With LAE (Yeast; [17]): <9.9 · 10^1 cfu/mL
- viable count With LAE (Yeast; [18]): 7.0 · 10^4 cfu/mL
- viable count With LAE (Yeast; [19]): <9.9 · 10^1 cfu/mL
- viable count With LAE (Yeast; [20]): <9.9 · 10^1 cfu/mL
- viable count With LAE (Yeast; [21]): 4.6 · 10^4 cfu/mL
- viable count With LAE (Yeast; [22]): <9.9 · 10^1 cfu/mL
- viable count With LAE (Yeast; [23]): <9.9 · 10^1 cfu/mL
- viable count With LAE (Yeast; [24]): 3.6 · 10^4 cfu/mL
- viable count With LAE (Yeast; [25]): 1.6 · 10^2 cfu/mL
- viable count With LAE (Yeast; [26]): <9.9 · 10^1 cfu/mL
- viable count With LAE (Yeast; [27]): 4.2 · 10^4 cfu/mL
- viable count With LAE (Yeast; [28]): 1.1 · 10^2 cfu/mL
- viable count With LAE (Yeast; [29]): <9.9 · 10^1 cfu/mL
- viable count With LAE (Yeast; [30]): 1.2 · 10^4 cfu/mL
- viable count With LAE (Yeast; [31]): 1.8 · 10^2 cfu/mL
- viable count With LAE (Yeast; [32]): <9.9 · 10^1 cfu/mL
- viable count With LAE (Yeast; [33]): 7.2 · 10^4 cfu/mL
- viable count With LAE (Yeast; [34]): 2.3 · 10^2 cfu/mL
- viable count With LAE (Yeast; [35]): <9.9 · 10^1 cfu/mL
- viable count With LAE (Yeast; [36]): 7.2 · 10^4 cfu/mL
- viable count With LAE (Yeast; [37]): 1.2 · 10^2 cfu/mL
- viable count With LAE (Yeast; [38]): <9.9 · 10^1 cfu/mL
- viable count With LAE (Yeast; [39]): 4.2 · 10^4 cfu/mL
- viable count With LAE (Yeast; [40]): 1.2 · 10^2 cfu/mL
- viable count With LAE (Yeast; [41]): <9.9 · 10^1 cfu/mL
- viable count With LAE (Yeast; [42]): 4.2 · 10^4 cfu/mL
- viable count With LAE (Yeast; [43]): 9.2 · 10^2 cfu/mL
- viable count With LAE (Yeast; [44]): <9.9 · 10^1 cfu/mL
- viable count With LAE (Yeast; [45]): 3.2 · 10^4 cfu/mL
- viable count With LAE (Yeast; [46]): 4.2 · 10^2 cfu/mL
- viable count With LAE (Yeast; [47]): <9.9 · 10^1 cfu/mL
- viable count With LAE (Yeast; [48]): 3.8 · 10^4 cfu/mL
- viable count With LAE (Yeast; [49]): 4.5 · 10^2 cfu/mL
- viable count With LAE (Yeast; [50]): <9.9 · 10^1 cfu/mL
- viable count With LAE (Yeast; [51]): 7.9 · 10^4 cfu/mL
- viable count With LAE (Yeast; [52]): 7.2 · 10^2 cfu/mL
- viable count With LAE (Yeast; [53]): <9.9 · 10^1 cfu/mL
- viable count With LAE (Yeast; [54]): 8.6 · 10^4 cfu/mL
- M.I.C. [6]: 32 ppm
- M.I.C. [7]: 32 ppm
- M.I.C. [8]: 128 ppm
- M.I.C. [9]: 32 ppm
